Assays:
Assay type in all cases: in vivo
“Momotaro” tomato [1] = assay: Standard test: standard extent of imparting plant salt stress tolerance; settings: 100 ppm sprayed onto leaves 10 ml/specimen, NaCl 3510 ppm in tap water, fresh weight after 2 weeks vs salt-stressed untreated control plot 1
Method: Standard Test (I) Plant Preparation A 50-cell tray is filled with potting soil (fertilizer components: N:P:K=0.4:1.9:0.6 (g)/kg potting soil); and seeds of a “Momotaro” tomato (Takii Co., Ltd.) are sowed, thinly covered with potting soil, and sufficiently irrigated to allow the seeds to sprout. When the leaves in the 2-leaf stage are fully unfolded, the soil on the tomato roots is washed away with running water, and a test is performed. For the potting soil, Kureha gardening soil manufactured by Kureha Corporation may be used. (II) Test Condition Setting The environmental conditions are controlled such that the temperature is 23° C., the relative humidity is 50%, the illuminance is 5000 Lux, and the daily light-dark cycle includes a 16-hour light period and an 8-hour dark period. Such environmental conditions can be obtained by, for example, controlling the temperature in a room or a climate chamber where the temperature and the relative humidity can be controlled, and controlling illuminance by a fluorescent light or the like. […] (III) Treatment with Plant Stress Tolerance Imparting Composition […] A known surfactant or a like material that barely affects the plant may be used in the preparation of an aqueous dispersion. Test plot: An aqueous solution or an aqueous dispersion of a test compound (sugar derivative-type surfactant) (concentration: 100 ppm) is sprayed onto the leaves in an amount of 10 ml per tomato specimen. […] NaCl is added to a solution culture medium (creating a salt stress), but no test compound (plant stress tolerance imparting composition) is given to the tomato. Control plot 2: No NaCl is added to a solution culture medium (creating no salt stress), and no test compound (plant stress tolerance imparting composition) is given to the tomato. (IV) Calculation of Standard Extent of Imparting Plant Salt Stress Tolerance (%) […] The plant stress level (standard plant salt stress level) attained in the above-described standard test is about 130%. In this regard, the standard plant salt stress level can be calculated according to Formula (ii)′ below.

“Momotaro” tomato [2] = assay: Example 2 temperature stress tolerance imparting test (tomato); settings: 32° C., leaf, 100 ppm, 2 weeks
Method: Other cultivation conditions were the same as the conditions of the temperature stress test. […] (2) Solution culture medium: […] Method of Temperature Stress Tolerance Imparting Test The temperature in a climatic chamber was controlled so as to be 10, 15, or 32° C. The environmental conditions were controlled so as to have an illuminance by a fluorescent light of 5000 Lux and a daily light-dark cycle of a 16-hour light period and a 8-hour dark period. In this test, a temperature of 23° C. at which the optimum growth was observed was regarded as a reference temperature (temperature stress-free test condition), and a stress was imposed by applying a temperature higher or lower than the reference temperature. A tomato as prepared above was planted in a 250 ml polyethylene bottle filled with the solution culture medium (½ Otsuka A formulation). A treatment solution as presented in Table 1 was sprayed onto the leaves or applied to the underground portion. […] Ten specimens were prepared for each of the test plot and the control plots, and a plant stress level and an extent of imparting plant stress tolerance were calculated according to Formula (ii) and (iii) above using as a fresh plant body weight the average of the fresh plant body weights of each specimen 2 weeks after the beginning of the test.

“Momotaro” tomato [3] = assay: Example 3 drying stress tolerance imparting test (tomato); settings: pF 2.3, leaf, 100 ppm once a week, 3 weeks
Method: Other cultivation conditions were as with the conditions of the drying stress test. Drying stress conditions: soil pF value: 2.3, 2.5, or 2.9, cultivation temperature: 23° C., relative humidity: 50%, illuminance: 5000 Lux (fluorescent light), light/dark cycle: 16 hours/8 hours (2) Cultivation period: 3 weeks (3) Soil: Kureha gardening soil manufactured by Kureha Corporation (fertilizer components: N:P:K=0.4:1.9:0.6 g/kg soil) (4) Plant preparation: A 50-cell tray was filled with Kureha gardening soil manufactured by Kureha Corporation (fertilizer components: N:P:K=0.4:1.9:0.6 g/kg soil), and seeds of a “Momotaro” tomato were sowed, thinly covered with Kureha gardening soil, and sufficiently watered to allow the seeds to sprout. When the leaves in the 2-leaf stage fully unfolded, the soil on the tomato roots was carefully washed away with running water, and a test was performed. (5) The chemicals used and the amount of a treatment solution applied were as in Example 1. (6) Amount of treatment solution applied: 10 ml/specimen for leaf spraying, 50 ml/specimen for fertigation Method of Drying Stress Tolerance Imparting Test Five tomato specimens as prepared above were planted in a 60-cm planter placed on a plant culture rack in an air-conditioned room. […] From immediately after planting the tomatoes, a treatment solution of Table 1 was sprayed onto the leaves or applied to the underground portions once a week. […] Five specimens (per planter) were prepared for each of the test plot and the control plots, plant bodies were collected 3 weeks after the beginning of the test such that the roots were not cut, the soil was washed away with running water, the fresh plant body-weights were measured, and a plant stress level and an extent of imparting plant stress tolerance were calculated according to Formula (ii) and (iii) above using the average of the weights.

“Momotaro” tomato [4] = assay: Example 4 salt stress tolerance imparting test (tomato, tap water + NaCl); settings: tap water + NaCl 3510 ppm, leaf, 100 ppm, 2 weeks
Text: NaCl concentration 3510 ppm (water potential by NaCl: […]) (4) Cultivation period: two weeks (5) Plant preparation: A 50-cell tray was filled with Kureha gardening soil manufactured by Kureha Corporation (fertilizer components: N:P:K=0.4:1.9:0.6 g/kg soil), and seeds of a “Momotaro” tomato were sowed, thinly covered with Kureha gardening soil, and sufficiently irrigated to allow the seeds to sprout. When the leaves in the 2-leaf stage fully unfolded, the soil on the tomato roots was carefully washed away with running water, and a test was performed. (6) The chemicals used and the concentration of a treatment solution were as in Example 1 (7) Amount of application: 10 ml/specimen for leaf spraying, 50 ml/specimen for fertigation Method of Salt Stress Tolerance Imparting Test […]

[5] = system: Potato Variety: Toyoshiro; assay: Example 5 drying stress tolerance imparting test (potato variety Toyoshiro); settings: pF 2.3, leaf, 100 ppm once a week, 3 weeks
Method: Other cultivation conditions were the same as the conditions of the drying stress test. Drying stress conditions: soil pF value: 2.3, 2.5, or 2.9, cultivation temperature: 23° C., relative humidity: 50%, illuminance: 5000 Lux (fluorescent light), light/dark cycle: 16 hours/8 hours (2) Cultivation Period: 3 weeks (3) Soil: Kureha gardening soil manufactured by Kureha Corporation (fertilizer components: N:P:K=0.4:1.9:0.6 g/kg soil) (4) The chemicals used and the amount of a treatment solution applied were the same as in Example 3. Method of Drying Stress Tolerance Imparting Test A planter (60 cm) was filled with Kureha gardening soil manufactured by Kureha Corporation (fertilizer components: N:P:K=0.4:1.9:0.6 g/kg soil) in a glass greenhouse, tubers of a “Thyoshiro” potato were cut in half: and 5 pieces thereof were planted in the planter, thinly covered with Kureha gardening soil, and sufficiently watered to allow the tubers to sprout. When the leaves in the 3-leaf stage fully unfolded, the Solarium tuberosu was relocated on a plant culture rack in an air-conditioned room, and a test was initiated. […] From immediately after the beginning of the test, a treatment solution of Table 1 was sprayed onto the leaves or applied to the underground portions once a week. […] Five specimens (per planter) were prepared for each of the test plot and the control plots, plant bodies were collected 3 weeks after the beginning of the test such that the roots were not cut, the soil was washed away with running water, the fresh plant body weights were measured, and a plant stress level and an extent of imparting plant stress tolerance were calculated according to Formula (ii) and (iii) above using the average of the weights.

With “Sucrose fatty acid ester (C18, HLB = 5) [Product of present invention 17]” the “Standard extent of imparting plant salt stress tolerance” value (“Momotaro” tomato [1]) was 113%, the “Extent of imparting plant stress tolerance” value (“Momotaro” tomato [2]) was 111% and the “Extent of imparting plant stress tolerance” value (“Momotaro” tomato [3]) was 112%. The “Extent of imparting plant stress tolerance” value (“Momotaro” tomato [4]) was 113% and the “Extent of imparting plant stress tolerance” value [5] was 114%.

Source: US20110100079A1, “METHOD FOR IMPARTING STRESS TOLERANCE TO PLANT” (priority 2007, published 2011)
